Test results as given in patent US20240383908A1, “SYNTHESIS AND APPLICATION OF PHOSPHATASE DEGRADER” (HINOVA PHARMACEUTICALS INC., priority 2021, published 2024).

Target: T1, SHP2 protein (Homo sapiens, UniProt Q06124)
T1 sequence (Q06124 1-593): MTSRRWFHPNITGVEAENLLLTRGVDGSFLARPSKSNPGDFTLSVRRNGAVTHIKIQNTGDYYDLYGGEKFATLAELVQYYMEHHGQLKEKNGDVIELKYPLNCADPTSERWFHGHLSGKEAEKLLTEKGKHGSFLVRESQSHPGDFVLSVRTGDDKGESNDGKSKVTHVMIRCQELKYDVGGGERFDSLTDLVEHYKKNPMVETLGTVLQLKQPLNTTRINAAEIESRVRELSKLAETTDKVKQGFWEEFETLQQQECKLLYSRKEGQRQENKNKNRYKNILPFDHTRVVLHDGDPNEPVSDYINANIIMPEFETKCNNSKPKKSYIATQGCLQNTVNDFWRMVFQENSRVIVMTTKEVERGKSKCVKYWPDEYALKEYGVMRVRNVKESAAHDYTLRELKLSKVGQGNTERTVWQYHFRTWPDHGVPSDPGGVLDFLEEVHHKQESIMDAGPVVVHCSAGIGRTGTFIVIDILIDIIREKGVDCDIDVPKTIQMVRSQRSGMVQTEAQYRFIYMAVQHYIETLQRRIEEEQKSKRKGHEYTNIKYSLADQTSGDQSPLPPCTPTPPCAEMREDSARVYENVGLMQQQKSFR
Experiment: Degradation activity on SHP2 protein in MV-411 cells (Western blot, DC50)
Format: cell-based
Set-up: endogenous in cells
Settings: MV411 cells, 24 hours, read-out: Degradation activity for differenct cell lines MV411 (DC50)
Procedure: • MV-411 cell line (COBIER, CBP-60522) • FBS (GEMINI, Cat. No. 900-108) • 0.01M PBS (Biosharp, Cat. No. 162262) • IMDM (Hyclone, Cat. No. SH30228.01) • Penicillin-Streptomycin (Gibco, Cat. No. 15140122) • DMSO (Sigma, Cat. No. D5879) • Centrifuge Tube, 15 ml (Excell Bio, Cat. No. CS015-0001) • Cell Culture Dish, (WHB, Cat. No. CS016-0128) • 12-well cell culture cluster (Corning, Cat. No. 3513) • RIPA lysate buffer (Thermo, Cat. No. 89900) • Protein Loding Buffer (Beyotime, Cat. No. P0015L) • BCA Protein Assay Kit (EpiZyme, Cat. No. ZJ102) • SDS-PAGE Fast Preparation Kit (EpiZyme, Cat. No. PG112) • Anti-GAPDH (14C10) Rabbit mAb (CST, Cat. No. 2118L) • Anti-SHP2 rabbit mAb (CST, Cat. No. 37525) • Peroxidase Affinipure (HRP) Goat Anti-Rabbit IgG (Zen Bioscience, Cat. No. 511203) • TBST (Biosharp, Cat. No. BL601A) • ECL chemiluminescence kit (4A Biotech, Cat. No. 4AW011-200)
• (1) Cell culture medium: IMIDM medium+10% FBS+1% Pen Strep; • (2) PBS buffer: PBS powder was dissolved in 2 L of ultrapure water and sterilized; • (3) Cell lysate: RIPA lysate buffer is added with protease inhibitors at a ratio of 1:1000 before use.
(1) MV-411 cells were cultured in the cell culture medium, and then well-growing cells were selected and inoculated in a 12-well plate, with 1 mL/well and 1×10^6 cells/well. The plate was incubated overnight in a 5% CO2 cell incubator at 37° C.
(2) 10 mM storage solution of each drug was prepared using dimethylsulfoxide (DMSO). The stock solution was diluted gradually with DMSO before use, and then 1 μL of the compound solution was added to the cell culture well (to ensure that the DMSO concentration in the culture system was […]), so that the final drug concentration is 100 nM, 10 nM, 3 nM, 1 nM, 0.3 nM, and 0.1 nM. Two wells were set for each concentration. The plate was gently shaken and mixed. Additionally, negative control wells (containing an equal amount of DMSO) and positive control wells were included.
(3) After 24 hours of cultivation, the cells were lysed using RIPA cell lysate, and the proteins were extracted. The protein concentration was measured using a BCA assay kit. 5× concentrated protein buffer was loaded, heated at 100° C. for 5 min, and then the sample was stored at −20° C.
(4) For each well, 30 μg of protein was loaded to polyacrylamide gel for electrophoresis.
(5) The protein was transferred from polyacrylamide gel to PVDF membrane, and sealed at room temperature with 5% skimmed milk for 1 h, which was then incubated with the primary antibodies (Anti-SHP2 rabbit mAb and Anti-GAPDH rabbit mAb) at 4° C. overnight. The membrane was washed three times with TBST solution, 10 minutes for each time. After that, the membrane was incubated with the secondary antibodies (horseradish peroxidase labeled goat anti-rabbit IgG) at room temperature for 2 h, and then washed three times with TBST solution, 10 minutes for each time, followed by exposure.
(6) The images were analyzed with Image J grayscale, and the degradation ratio of protein bands in the test group was calculated, based on the negative control group (DMSO) (100%).
(7) Using the Dose-response-inhibition equation in the data processing software GraphPad Prism 8, the DC50 value was obtained (which represents the drug concentration corresponding to 50% degradation of the target protein).
Finally, ECL detection solution was added for color development, and photos were taken with an automatic chemiluminescence instrument, so as to collect images and analyze them.

Compared with `CC1(N)CCN(c2cnc(Sc3cccc(NC(=O)CCC(=O)N4CC5(CN(CCCCCCCC(=O)NCc6ccc7c(c6)CN(C6CCC(=O)NC6=O)C7=O)C5)C4)c3)cn2)CC1` (centres unmarked) [Compound 31], `CC1(N)CCN(c2cnc(Sc3cccc(NC(=O)[C@@H]4C[C@H]4C(=O)N4CC5(CN(CCCCCCCC(=O)NCc6ccc7c(c6)CN(C6CCC(=O)NC6=O)C7=O)C5)C4)c3)cn2)CC1` (some centres unmarked) [Compound 38] is lower in DC50: greater than 1000 nM for the first, less than 100 nM for the second.

`Cc1ncsc1-c1ccc([C@H](C)NC(=O)[C@@H]2C[C@@H](O)CN2C(=O)[C@@H](NC(=O)CCCCCCCCN2CCN(C(=O)CCC(=O)Nc3cccc(Sc4cnc(N5CCC(C)(N)CC5)cn4)c3)CC2)C(C)(C)C)cc1` [Compound 34] and `Cc1ncsc1-c1ccc([C@H](C)NC(=O)[C@@H]2C[C@@H](O)CN2C(=O)[C@@H](NC(=O)CCCCCCCCN2CCN(C(=O)/C=C/C(=O)Nc3cccc(Sc4cnc(N5CCC(C)(N)CC5)cn4)c3)CC2)C(C)(C)C)cc1` [Compound 54] cannot be ordered by DC50: less than 100 nM for the first, less than 100 nM for the second.

`Cc1nc2cccc(NC(=O)CCCCCCCCN3CCN(C(=O)CCC(=O)Nc4cccc(Sc5cnc(N6CCC(C)(N)CC6)cn5)c4)CC3)c2c(=O)n1C1CCC(=O)NC1=O` (centres unmarked) [Compound 35] and `CC1(C(N)=O)CCN(c2cnc(Sc3cccc(NC(=O)CCCCCCCCN4CCN(c5ncc(C(=O)NCc6cccc7c6CN(C6CCC(=O)NC6=O)C7=O)cn5)CC4)c3)cn2)CC1` (centres unmarked) [Compound 61] cannot be ordered by DC50: greater than 1000 nM for the first, greater than 1000 nM for the second.

First: Cc1ncsc1-c1ccc([C@H](C)NC(=O)[C@@H]2C[C@@H](O)CN2C(=O)[C@@H](NC(=O)CCCCCCCCCCN2CCC(C(=O)Nc3cccc(Sc4cnc(N5CCC(C)(N)CC5)cn4)c3)CC2)C(C)(C)C)cc1 [Compound 36]
Second: Cc1ncsc1-c1ccc([C@H](C)NC(=O)[C@@H]2C[C@@H](O)CN2C(=O)[C@@H](NC(=O)CCCCCCCCCCN2CC(C(=O)Nc3cccc(Sc4cnc(N5CCC(C)(N)CC5)cn4)c3)C2)C(C)(C)C)cc1 [Compound 44]
The DC50 of the first is higher: greater than 1000 nM for the first, 100 to 1000 nM for the second.

`CC1(N)CCN(c2cnc(Sc3cccc(NC(=O)C4CCN(CCCCCCCCCCC(=O)NCc5ccc6c(c5)CN(C5CCC(=O)NC5=O)C6=O)CC4)c3)cn2)CC1` (centres unmarked) [Compound 37] and `CC1(N)CCN(c2cnc(Sc3cccc(NC(=O)C4CN(CCCCCCCCCCC(=O)NCc5ccc6c(c5)CN(C5CCC(=O)NC5=O)C6=O)C4)c3)cn2)CC1` (centres unmarked) [Compound 43] cannot be ordered by DC50: greater than 1000 nM for the first, greater than 1000 nM for the second.

`Cc1ncsc1-c1ccc([C@H](C)NC(=O)[C@@H]2C[C@@H](O)CN2C(=O)[C@@H](NC(=O)CCCCCCCN2CC3(C2)CN(C(=O)[C@@H]2C[C@H]2C(=O)Nc2cccc(Sc4cnc(N5CCC(C)(N)CC5)cn4)c2)C3)C(C)(C)C)cc1` [Compound 39] and `Cc1ncsc1-c1ccc([C@H](C)NC(=O)[C@@H]2C[C@@H](O)CN2C(=O)[C@@H](NC(=O)CCCCCCCCC(=O)Nc2cccc(Sc3cnc(N4CCC(C)(N)CC4)cn3)c2)C(C)(C)C)cc1` [Compound 52] cannot be ordered by DC50: less than 100 nM for the first, less than 100 nM for the second.

Compared with `CC1(N)CCN(c2cnc(Sc3cccc(NC(=O)CCCCCCCCCCC(=O)NCc4ccc5c(c4)CN(C4CCC(=O)NC4=O)C5=O)c3)cn2)CC1` (centres unmarked) [Compound 40], `CC1(N)CCN(c2cnc(Sc3cccc(NC(=O)CCCCCCCCCC(=O)NCc4ccc5c(c4)CN(C4CCC(=O)NC4=O)C5=O)c3)cn2)CC1` (centres unmarked) [Compound 57] is higher in DC50: less than 100 nM for the first, greater than 1000 nM for the second.

`CC1(N)CCN(c2cnc(Sc3cccc(NC(=O)CCCCCCCCCCCCC(=O)NCc4ccc5c(c4)CN(C4CCC(=O)NC4=O)C5=O)c3)cn2)CC1` (centres unmarked) [Compound 41] and `CC1(N)CCN(c2cnc(Sc3cccc(NC(=O)CCCCCCCCCCCCCCC(=O)NCc4ccc5c(c4)CN(C4CCC(=O)NC4=O)C5=O)c3)cn2)CC1` (centres unmarked) [Compound 42] cannot be ordered by DC50: greater than 1000 nM for the first, greater than 1000 nM for the second.

Compared with `CC1(N)CCN(c2cnc(Sc3cccc(NC(=O)CCN4CC5(CCN(CCCCCC(=O)NCc6cccc7c6CN(C6CCC(=O)NC6=O)C7=O)C5)C4)c3)cn2)CC1` (centres unmarked) [Compound 45], `CC1(N)CCN(c2cnc(Sc3cccc(NC(=O)CCCCCCCCC(=O)NCc4ccc5c(c4)CN(C4CCC(=O)NC4=O)C5=O)c3)cn2)CC1` (centres unmarked) [Compound 53] is higher in DC50: 100 to 1000 nM for the first, greater than 1000 nM for the second.

First: Cc1ncsc1-c1ccc([C@H](C)NC(=O)[C@@H]2C[C@@H](O)CN2C(=O)[C@@H](NC(=O)c2cnc(N3CCN(CCCCCCCCC(=O)Nc4cccc(Sc5cnc(N6CCC(C)(N)CC6)cn5)c4)CC3)nc2)C(C)(C)C)cc1 [Compound 47]
Second: Cc1ncsc1-c1ccc([C@H](C)NC(=O)[C@@H]2C[C@@H](O)CN2C(=O)[C@@H](NC(=O)c2cnc(N3CCN(CCCCCCCCC(=O)Nc4cccc(Sc5cnc(N6CCC(C)(C(N)=O)CC6)cn5)c4)CC3)nc2)C(C)(C)C)cc1 [Compound 60]
The DC50 of the first is lower: less than 100 nM for the first, greater than 1000 nM for the second.

First: Cc1ncsc1-c1ccc([C@H](C)NC(=O)[C@@H]2C[C@@H](O)CN2C(=O)[C@@H](NC(=O)CCCCCCCCCCC(=O)Nc2cccc(Sc3cnc(N4CCC(C)(N)CC4)cn3)c2)C(C)(C)C)cc1 [Compound 49]
Second: Cc1ncsc1-c1ccc([C@H](C)NC(=O)[C@@H]2C[C@@H](O)CN2C(=O)[C@@H](NC(=O)CCCCCCCCCCCC(=O)Nc2cccc(Sc3cnc(N4CCC(C)(N)CC4)cn3)c2)C(C)(C)C)cc1 [Compound 58]
The DC50 of the first is lower: less than 100 nM for the first, 100 to 1000 nM for the second.

`Cc1ncsc1-c1ccc([C@H](C)NC(=O)[C@@H]2C[C@@H](O)CN2C(=O)[C@@H](NC(=O)CCCCCCCCCCCCC(=O)Nc2cccc(Sc3cnc(N4CCC(C)(N)CC4)cn3)c2)C(C)(C)C)cc1` [Compound 50] and `Cc1ncsc1-c1ccc([C@H](C)NC(=O)[C@@H]2C[C@@H](O)CN2C(=O)[C@@H](NC(=O)CCCCCCCCCCCCCCC(=O)Nc2cccc(Sc3cnc(N4CCC(C)(N)CC4)cn3)c2)C(C)(C)C)cc1` [Compound 51] cannot be ordered by DC50: less than 100 nM for the first, less than 100 nM for the second.

Compared with `Cc1ncsc1-c1ccc([C@H](C)NC(=O)[C@@H]2C[C@@H](O)CN2C(=O)[C@@H](NC(=O)CCCCCCCCCC(=O)Nc2cccc(Sc3cnc(N4CCC(C)(N)CC4)cn3)c2)C(C)(C)C)cc1` [Compound 56], `Cc1ncsc1-c1ccc([C@H](C)NC(=O)[C@@H]2C[C@@H](O)CN2C(=O)[C@@H](NC(=O)c2ccc(N3CCN(CCCCCCCCC(=O)Nc4cccc(Sc5cnc(N6CCC(C)(N)CC6)cn5)c4)CC3)nn2)C(C)(C)C)cc1` [Compound 62] is lower in DC50: greater than 1000 nM for the first, 100 to 1000 nM for the second.

Going from `CC1(N)CCN(c2cnc(Sc3cccc(NC(=O)CCN4CC5(CCN(c6ncc(C(=O)NCc7ccc8c(c7)CN(C7CCC(=O)NC7=O)C8=O)cn6)C5)C4)c3)cn2)CC1` (centres unmarked) [Compound 65] to `CC1(N)CCN(c2cnc(Sc3cccc(NC(=O)COCCOCCN4CCN(c5ncc(C(=O)NCc6ccc7c(c6)CN(C6CCC(=O)NC6=O)C7=O)cn5)CC4)c3)cn2)CC1` (centres unmarked) [Compound 67], the DC50 rises from less than 100 nM to greater than 1000 nM.

Compound `Cc1ncsc1-c1ccc([C@H](C)NC(=O)[C@@H]2C[C@@H](O)CN2C(=O)[C@@H](NC(=O)c2cnc(N3CCN(CCOCCOCC(=O)Nc4cccc(Sc5cnc(N6CCC(C)(N)CC6)cn5)c4)CC3)nc2)C(C)(C)C)cc1` [Compound 66] has a DC50 of less than 100 nM.
